Source: PubChem BioAssay AID1963871 (Molecular Pharmacology Branch, DTP, NCI, 2024)

Tested on: KRAS-mutant PDC multicell tumor spheroid viability
Experiment: Anticancer human tumor 521955-158-R2-J5-PDC patient-derived pancreatic carcinoma cell line growth inhibition [KRAS2]
Details: for IC50: curve of first compound; for viability, T/C: stronger effect = lower value; active means viability on the fitted dose curve at most 10% of control; inactive means the rest
Outline: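 Combination screen of spheroid viability in tumor-cell co-cultures with endothelial (HUVEC) and mesenchymal stem cell stroma. Each agent was tested in half-log dilutions, topping at clinical Cmax or at 10 microM without a known Cmax.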

[1] = second compound 0.1 µM, first compound 0.0316 µM
[2] = second compound 0.1 µM, first compound 0.1 µM
[3] = second compound 0.1 µM, first compound 0.316 µM
[4] = second compound 0.1 µM, first compound 1 µM
[5] = second compound 0.1 µM, first compound 3.16 µM
[6] = second compound 0.1 µM, first compound 10 µM
[7] = second compound 0.316 µM, first compound 0.0316 µM
[8] = second compound 0.316 µM, first compound 0.1 µM
[9] = second compound 0.316 µM, first compound 0.316 µM
[10] = second compound 0.316 µM, first compound 1 µM
[11] = second compound 0.316 µM, first compound 3.16 µM
[12] = second compound 0.316 µM, first compound 10 µM
[13] = second compound 1 µM, first compound 0.0316 µM
[14] = second compound 1 µM, first compound 0.1 µM
[15] = second compound 1 µM, first compound 0.316 µM
[16] = second compound 1 µM, first compound 1 µM
[17] = second compound 1 µM, first compound 3.16 µM
[18] = second compound 1 µM, first compound 10 µM
[19] = second compound 3.16 µM, first compound 0.0316 µM
[20] = second compound 3.16 µM, first compound 0.1 µM
[21] = second compound 3.16 µM, first compound 0.316 µM
[22] = second compound 3.16 µM, first compound 1 µM
[23] = second compound 3.16 µM, first compound 3.16 µM
[24] = second compound 3.16 µM, first compound 10 µM
[25] = second compound 10 µM, first compound 0.0316 µM
[26] = second compound 10 µM, first compound 0.1 µM
[27] = second compound 10 µM, first compound 0.316 µM
[28] = second compound 10 µM, first compound 1 µM
[29] = second compound 10 µM, first compound 3.16 µM
[30] = second compound 10 µM, first compound 10 µM
[31] = second compound 0.1 µM, first compound 0.01 µM
[32] = second compound 0.316 µM, first compound 0.01 µM
[33] = second compound 1 µM, first compound 0.01 µM
[34] = second compound 3.16 µM, first compound 0.01 µM
[35] = second compound 10 µM, first compound 0.01 µM
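Further: viability read after seven days of drug exposure.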

CC(C)NCC(C(=O)N1CCN(c2ncnc3c2C(C)CC3O)CC1)c1ccc(Cl)cc1 (stereo not given) + CNCc1ccccc1-c1csc(C(C)Nc2nc(C)nc3cc(OC)c(OC)cc23)c1
< 31.6 nM: IC50 (second compound 3.16 µM) | IC50 (second compound 10 µM)
> 10000 nM: IC50 (second compound 0.1 µM) | IC50 (second compound 0.316 µM)
active: viability, T/C [19] 1.5% | viability, T/C [20] 1.33% | viability, T/C [21] 1.91% | viability, T/C [22] 0.59% | viability, T/C [23] 0.9% | viability, T/C [24] 0.33% | viability, T/C [25] 0.61% | viability, T/C [26] 1.13% | viability, T/C [27] 0.73% | viability, T/C [28] 0.33% | viability, T/C [29] 2.15% | viability, T/C [30] 0.33%
inactive: viability, T/C [1] 103% | viability, T/C [2] 104% | viability, T/C [3] 83.4% | viability, T/C [4] 77.6% | viability, T/C [5] 84.1% | viability, T/C [6] 66.3% | viability, T/C [7] 101% | viability, T/C [8] 102% | viability, T/C [9] 79.9% | viability, T/C [10] 70.1% | viability, T/C [11] 67.5% | viability, T/C [12] 55.9% | viability, T/C [13] 109% | viability, T/C [14] 98.5% | viability, T/C [15] 75.4% | viability, T/C [16] 66.5% | viability, T/C [17] 58% | viability, T/C [18] 38.2%
4280 nM: IC50 (second compound 1 µM)

CC1COCCN1c1cc(-c2ccnn2C)c2ccnc(-c3ccn[nH]3)c2n1 (stereo not given) + CNCc1ccccc1-c1csc(C(C)Nc2nc(C)nc3cc(OC)c(OC)cc23)c1
< 10 nM: IC50 (second compound 3.16 µM) | IC50 (second compound 10 µM)
30.5 nM: IC50 (second compound 0.1 µM)
23.8 nM: IC50 (second compound 0.316 µM)
22.1 nM: IC50 (second compound 1 µM)
active: viability, T/C [34] 0.3% | viability, T/C [19] 0.11% | viability, T/C [20] 0.07% | viability, T/C [21] 0.06% | viability, T/C [22] 0.08% | viability, T/C [23] 0.33% | viability, T/C [35] 0.14% | viability, T/C [25] 0.15% | viability, T/C [26] 0.13% | viability, T/C [27] 0.13% | viability, T/C [28] 0.12% | viability, T/C [29] 0.22%
inactive: viability, T/C [31] 101% | viability, T/C [1] 48.3% | viability, T/C [2] 11.4% | viability, T/C [3] 13.6% | viability, T/C [4] 20.8% | viability, T/C [5] 29.5% | viability, T/C [32] 95.9% | viability, T/C [7] 35% | viability, T/C [8] 12.4% | viability, T/C [9] 11.7% | viability, T/C [10] 20.7% | viability, T/C [11] 25.9% | viability, T/C [33] 105% | viability, T/C [13] 25.3% | viability, T/C [14] 8.4% | viability, T/C [15] 11.7% | viability, T/C [16] 21.2% | viability, T/C [17] 22.9%

CCN1CCN(Cc2ccc(Nc3ncc(F)c(-c4cc(F)c5nc(C)n(C(C)C)c5c4)n3)nc2)CC1 + CNCc1ccccc1-c1csc(C(C)Nc2nc(C)nc3cc(OC)c(OC)cc23)c1
627 nM: IC50 (second compound 1 µM)
inactive: viability, T/C (second compound 0.1 µM, first compound 0.00316 µM) 107% | viability, T/C [31] 97.5% | viability, T/C [1] 94.4% | viability, T/C [2] 89.5% | viability, T/C [3] 108% | viability, T/C [4] 94.9% | viability, T/C (second compound 0.316 µM, first compound 0.00316 µM) 120% | viability, T/C [32] 108% | viability, T/C [7] 89.6% | viability, T/C [8] 107% | viability, T/C [9] 103% | viability, T/C [10] 93.4% | viability, T/C (second compound 1 µM, first compound 0.00316 µM) 116% | viability, T/C [33] 111% | viability, T/C [13] 117% | viability, T/C [14] 95.3% | viability, T/C [15] 119%
< 3.16 nM: IC50 (second compound 3.16 µM) | IC50 (second compound 10 µM)
active: viability, T/C [16] 7.8% | viability, T/C (second compound 3.16 µM, first compound 0.00316 µM) 2.02% | viability, T/C [34] 0.33% | viability, T/C [19] 0.25% | viability, T/C [20] 0.25% | viability, T/C [21] 0.17% | viability, T/C [22] 0.6% | viability, T/C (second compound 10 µM, first compound 0.00316 µM) 0.21% | viability, T/C [35] 0.26% | viability, T/C [25] 0.29% | viability, T/C [26] 0.24% | viability, T/C [27] 0.21% | viability, T/C [28] 0.26%
> 1000 nM: IC50 (second compound 0.1 µM) | IC50 (second compound 0.316 µM)

CCNC(=O)CC1N=C(c2ccc(Cl)cc2)c2cc(OC)ccc2-n2c(C)nnc21 (stereo not given) + CNCc1ccccc1-c1csc(C(C)Nc2nc(C)nc3cc(OC)c(OC)cc23)c1
active: viability, T/C [19] 0.37% | viability, T/C [20] 0.16% | viability, T/C [21] 0.27% | viability, T/C [22] 0.08% | viability, T/C [23] 0.08% | viability, T/C [24] 0.19% | viability, T/C [25] 0.15% | viability, T/C [26] 0.14% | viability, T/C [27] 0.12% | viability, T/C [28] 0.8% | viability, T/C [29] 0.13% | viability, T/C [30] 0.36%
< 31.6 nM: IC50 (second compound 3.16 µM) | IC50 (second compound 10 µM)
360 nM: IC50 (second compound 1 µM)
509 nM: IC50 (second compound 0.1 µM)
388 nM: IC50 (second compound 0.316 µM)
inactive: viability, T/C [1] 108% | viability, T/C [2] 87.9% | viability, T/C [3] 56.1% | viability, T/C [4] 41.4% | viability, T/C [5] 32% | viability, T/C [6] 31.4% | viability, T/C [7] 105% | viability, T/C [8] 93% | viability, T/C [9] 53.3% | viability, T/C [10] 34.3% | viability, T/C [11] 28.6% | viability, T/C [12] 30.6% | viability, T/C [13] 99% | viability, T/C [14] 92.2% | viability, T/C [15] 51.8% | viability, T/C [16] 34.9% | viability, T/C [17] 32.5% | viability, T/C [18] 31.3%

Cn1nccc1Nc1nccc(-c2cc3c(s2)C(C)(C)N(CCN2CCOCC2)C3=O)n1 + CNCc1ccccc1-c1csc(C(C)Nc2nc(C)nc3cc(OC)c(OC)cc23)c1
active: viability, T/C [18] 0.54% | viability, T/C [19] 0.21% | viability, T/C [20] 0.22% | viability, T/C [21] 0.19% | viability, T/C [22] 0.51% | viability, T/C [23] 0.08% | viability, T/C [24] 0.36% | viability, T/C [25] 0.11% | viability, T/C [26] 0.15% | viability, T/C [27] 0.14% | viability, T/C [28] 0.14% | viability, T/C [29] 0.19% | viability, T/C [30] 0.2%
913 nM: IC50 (second compound 1 µM)
784 nM: IC50 (second compound 0.316 µM)
1050 nM: IC50 (second compound 0.1 µM)
< 31.6 nM: IC50 (second compound 3.16 µM) | IC50 (second compound 10 µM)
inactive: viability, T/C [1] 99.7% | viability, T/C [2] 84.2% | viability, T/C [3] 60.7% | viability, T/C [4] 54.2% | viability, T/C [5] 36.5% | viability, T/C [6] 18% | viability, T/C [7] 98.3% | viability, T/C [8] 81.4% | viability, T/C [9] 60.9% | viability, T/C [10] 49.6% | viability, T/C [11] 29.4% | viability, T/C [12] 18.3% | viability, T/C [13] 103% | viability, T/C [14] 100% | viability, T/C [15] 71.9% | viability, T/C [16] 47.7% | viability, T/C [17] 22.3%
